These results are taken from patent US9540647B2, “Methods and compositions for the treatment of cancer” (University of South Alabama, priority 2010, dated 2017).

“Also recorded” adds a separate entry of the source.

The subject of one experiment is ERCC1, XPD, XRCC1. The experiment in a line: ERCC1, XPD and XRCC1 mRNA levels in A2780-CP70 cells (semi-quantitative PCR). The experiment is classed as cell-based, human. As to conditions: single agent at levels associated with 50% cell killing; 6-72 hr.
Experiment [1] relates to OPN. The experiment is described as follows: OPN expression in osteoblastic cells treated with cyclopamine (qRT-PCR, immunoblot). The class given is cell-based, human. The procedure: Quantitative RT-PCR (qRT-PCR)—cDNA was generated using High Capacity Reverse Transcriptase Kit (Applied Biosystems, Foster City, Calif.). Real time PCR was performed using a BioRad iQ5 Real-Time Detection system (Bio-Rad, Hercules, Calif.). All reactions were done in triplicate. OPN transcript levels were normalized to GAPDH levels (dCT) which was used to calculate changes in OPN expression (2-ddCT). […] The primers used included Sppl (OPN) (Mm 00436767_m1); Bglap (osteocalcin) (Mm 01741771_g1); IBSP (Mm 00492555_m1); PTHrP (Mm 00433057_m1); RANKL (Mm 00441906_m1); GAPDH (Mm 99999915_g1).

A further experiment has as its system SHH and IHH. The experiment is described as follows: SHH and IHH protein expression in A2780 and A2780-CP70 cells (Western blot). The note with it: cyclopamine. The class given is cell-based, human. Background: A western blot detects proteins with antibodies after separation by electrophoresis.
Experiment [2] deals with OPN. The experiment in a line: OPN expression in RAW264.7 pre-osteoclasts in response to SHH. The class given is cell-based, murine. As to conditions: RAW264.7 cells. The procedure:
Western Blotting Analysis—Whole cell lysates were collected in NP-40 buffer (150 mM NaCl, 50 mM Tris, 1% NP-40). Total protein (30 μg) was resolved by SDS-PAGE gel and transferred to PVDF membranes. Membranes were immunoblotted overnight at 4° C. with antibodies to either SHH (Santacruz, Calif., USA) or IHH (Santacruz). Equal loading was confirmed with anti-β-tubulin (Cell Signaling, Danvers, Mass.). To assess OPN expression upon SHH treatment, […] were grown in 6-well plates in the presence of SHH. After 24 hours the cells were lysed in NP-40 buffer and 30 μg of each experimental group assessed by immunoblotting. To assess for the expression of OPN, MMP9 and CTSK, at the end of Day 6 of differentiation, all the different experimental groups were kept in serum free medium for 24 hrs and both, the conditioned media and whole cell lysates were collected and immunoblotted using antibodies to either anti-mouse OPN (Millipore, Bedford, Mass.), or CTSK (SantaCruz Biotech). Equal loading was confirmed with anti-β-actin (Sigma) antibody. Secreted MMP9 (Santa Cruz Biotech) was assessed by loading equal quantity of protein from the serum-free conditioned medium. Corresponding HRP conjugated secondary antibodies were used for detection; blots were developed with SuperSignal enhanced chemiluminescence substrate (Pierce, Rockford, Ill.) and imaged using a Fuji LAS3000 imager. Detection and quantification of proteins was done using Fuji LAS 3000 apparatus and Multigauge V3.1 software (Fujifilm, Valhalla, N.Y.). Band intensities were measured in arbitrary Units (AU). […]
Luciferase Assay—Cells were co-transfected with the OPN promoter construct, pGL3-OPNB and pSV-β-galactosidase (Promega) (Das, S., et al. (2009) J Biol Chem 284, 22888-22897). […] Readings were normalized to β-galactosidase. […]
Quantitative RT-PCR (qRT-PCR)—cDNA was generated using High Capacity Reverse Transcriptase Kit (Applied Biosystems, Foster City, Calif.). […] Following the experimental regime as described herein (for Osteoclast differentiation/activity) RNA was isolated using Trizol (Invitrogen) and assessed as described herein. […]

Experiment [3] concerns OPN promoter. The experiment in a line: OPN promoter reporter activity in hFOB cells. The experiment is classed as cell-based, human. The procedure:
(§1) Empty pGL3 vector was used as control. […] Readings were normalized to total protein content. Each parameter was studied in triplicate and the experiment repeated at least 3 times. The data are represented as percent luciferase activity, which was derived as a percent of the relative light units in treated groups compared with the untreated groups.
(§2) Empty pGL3 vector was used as control. Different concentrations of SHH ligand were added to the well the next day. Cells were lysed in Reporter Lysis buffer (Promega) 24 hrs post addition of SHH and both β-galactosidase assay and luciferase assays were done following manufacturer's protocol. Readings were normalized to β-galactosidase. Each parameter was studied in triplicate and the experiment repeated at least 3 times.

In experiment [4] the test system is OPN promoter. The experiment is described as follows: OPN promoter reporter activity in MC3T3-E1 pre-osteoblastic cells. The class given is cell-based, murine. The procedure: as §1, §2

Consider `CC1=C2C[C@H]3[C@@H](CC=C4C[C@@H](O)CC[C@@]43C)[C@@H]2CC[C@]12O[C@@H]1C[C@H](C)CN[C@H]1[C@H]2C` [cyclopamine], for which the “mRNAs for ERCC1, XPD, or XRCC1” value in the experiment with ERCC1, XPD, XRCC1 is given as “no increase”. The “OPN mRNA levels” value with OPN [1] (hFOB cells, cyclopamine 5 μM, 10 μM, 20 μM) is listed as “decreases OPN mRNA levels”. Besides, in the experiment with OPN [1] (osteoblastic cells in presence of cyclopamine), the “expression of total OPN” value was “decreased”. Further, the “secreted OPN” value in the experiment on OPN [1] (osteoblastic cells, cyclopamine 5, 10 and 20 μM, dose and time dependent) was “decreased”. Besides, the “expression of OPN transcript” value with OPN [1] (osteoblastic cells, cyclopamine (20 μg/ml), real time PCR) was “decreased the expression of OPN transcript”. In the experiment on SHH and IHH (24 hr), the IHH protein levels result is “reduced” and the SHH protein levels result is listed as “reduced”. In the experiment with SHH and IHH (48 hr and 72 hr), the IHH protein levels result is listed as “rebounded” and the SHH protein levels entry is “rebounded”.

As to “SHH: recombinant Sonic Hedgehog ligand (R & D Systems)”, the “expression of OPN (immunoblot)” value in the experiment on OPN [2] (24 hours post SHH treatment) is on record as “stimulates the expression of OPN”. For the same compound, the OPN promoter activity entry in the experiment on OPN [2] (24 hours post-SHH treatment) is “significantly (p<0.05) higher”; in the experiment on OPN promoter [3], “activates the OPN promoter; also recorded: upregulation in OPN promoter activity”; in the experiment with OPN promoter [4] it was “activate OPN promoter; also recorded: upregulation in OPN promoter activity”. Besides, the “levels of OPN mRNA” value in the experiment on OPN [2] (recombinant SHH vs untreated) is “significantly greater levels of OPN mRNA”.
